# Laboratory results: patent publication US20250213555A1, “SUBSTITUTED TETRAHYDROFURAN ANALOGS AS MODULATORS OF SODIUM CHANNELS” (VERTEX PHARMACEUTICALS INCORPORATED, priority 2021, published 2025)
# Target: human Nav 1.8 (Homo sapiens, UniProt Q9Y5Y9)
# Assay: E-VIPR assay detecting and measuring Nav inhibition properties
# Format: cell-based
# Details: HEK cells expressing a truncated form of human Nav 1.8; compound numbers without "*" (not marked as run in the presence of human serum); read-out: measured IC50 value in the E-VIPR Assay
# How it was run: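 Nav inhibition was read by E-VIPR: cells were electrically stimulated while coumarin/oxonol FRET emissions were recorded. Cells were HEK expressing a truncated human Nav 1.8 and co-transduced with KIR2.1, and were assayed in 25% final human serum.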
# Chain of human Nav 1.8 (Q9Y5Y9 126-399 limits assumed): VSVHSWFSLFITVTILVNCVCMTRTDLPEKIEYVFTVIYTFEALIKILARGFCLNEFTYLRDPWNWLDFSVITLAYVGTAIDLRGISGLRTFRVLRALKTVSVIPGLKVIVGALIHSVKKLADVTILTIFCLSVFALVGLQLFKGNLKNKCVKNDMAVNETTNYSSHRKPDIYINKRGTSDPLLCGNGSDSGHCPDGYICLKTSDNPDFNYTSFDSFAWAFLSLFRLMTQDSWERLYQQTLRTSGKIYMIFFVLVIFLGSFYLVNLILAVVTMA
# Chain of human Nav 1.8 (Q9Y5Y9 660-890 limits assumed): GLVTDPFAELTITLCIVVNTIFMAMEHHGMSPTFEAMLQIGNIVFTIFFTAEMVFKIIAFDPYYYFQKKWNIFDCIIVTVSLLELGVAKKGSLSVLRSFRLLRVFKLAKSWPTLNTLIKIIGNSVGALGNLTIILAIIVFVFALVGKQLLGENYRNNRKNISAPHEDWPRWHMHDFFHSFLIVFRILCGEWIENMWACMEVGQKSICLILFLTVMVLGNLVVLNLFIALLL
# Chain of human Nav 1.8 (Q9Y5Y9 1148-1722 limits assumed): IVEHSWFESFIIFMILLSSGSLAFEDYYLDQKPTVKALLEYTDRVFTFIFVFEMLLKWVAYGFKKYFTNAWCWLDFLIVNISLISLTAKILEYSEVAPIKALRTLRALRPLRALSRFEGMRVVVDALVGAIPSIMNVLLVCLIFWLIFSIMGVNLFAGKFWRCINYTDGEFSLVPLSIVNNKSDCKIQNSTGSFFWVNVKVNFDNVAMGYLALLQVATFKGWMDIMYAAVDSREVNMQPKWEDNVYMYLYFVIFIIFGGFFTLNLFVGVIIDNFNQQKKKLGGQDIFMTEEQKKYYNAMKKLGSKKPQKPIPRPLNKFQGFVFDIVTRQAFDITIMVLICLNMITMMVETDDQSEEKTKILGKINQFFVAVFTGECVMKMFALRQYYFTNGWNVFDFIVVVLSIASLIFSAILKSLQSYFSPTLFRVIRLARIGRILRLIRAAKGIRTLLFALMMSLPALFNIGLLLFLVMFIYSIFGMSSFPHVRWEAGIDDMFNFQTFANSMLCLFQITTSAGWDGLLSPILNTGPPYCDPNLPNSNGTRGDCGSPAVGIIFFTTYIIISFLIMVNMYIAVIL
row,SMILES,IC50
1,"C[C@H]1[C@@H](c2cccc(C(F)(F)F)c2O[C@H]2C[C@@H](O)C2)[C@H](C(=O)Nc2ccnc(C(N)=O)c2)O[C@@]1(C)C(F)(F)F [Compound 212, 4-((2R,3S,4S,5R)-3-(2-((1s,3R)-3-hydroxycyclobutoxy)-3-(trifluoromethyl)phenyl)-4,5-dimethyl-5-(trifluoromethyl)tetrahydrofuran-2-carboxamido) picolinamide]",< 10 nM
2,"C[C@H]1[C@@H](c2cccc(Cl)c2O[C@H]2C[C@@H](O)C2)[C@H](C(=O)Nc2ccnc(C(N)=O)c2)O[C@@]1(C)C(F)(F)F [Compound 213, 4-((2R,3S,4S,5R)-3-(3-chloro-2-((1s,3R)-3-hydroxycyclobutoxy)phenyl)-4,5-dimethyl-5-(trifluoromethyl)tetrahydrofuran-2-carboxamido) picolinamide]",< 10 nM
3,"COc1c([C@H]2[C@H](C(=O)Nc3ccnc(C(=O)O)c3)O[C@@](C)(C(F)(F)F)[C@H]2C)ccc(F)c1F [Compound 214, 4-((2R,3S,4S,5R)-3-(3,4-difluoro-2-methoxyphenyl)-4,5-dimethyl-5-(trifluoromethyl)tetrahydrofuran-2-carboxamido)picolinic acid]",10 to 100 nM
4,"COc1c([C@H]2[C@H](C(=O)Nc3ccnc(C(=O)N4CC5CC(C4)O5)c3)O[C@@](C)(C(F)(F)F)[C@H]2C)ccc(F)c1F [Compound 218, (2R,3S,4S,5R)-N-(2-(6-oxa-3-azabicyclo[3.1.1]heptane-3-carbonyl)pyridin-4-yl)-3-(3,4-difluoro-2-methoxyphenyl)-4,5-dimethyl-5-(trifluoromethyl)tetrahydrofuran-2-carboxamide]",< 10 nM
5,"COc1c([C@H]2[C@H](C(=O)Nc3ccnc(C(=O)N4CCC45CNC5)c3)O[C@@](C)(C(F)(F)F)[C@H]2C)ccc(F)c1F [Compound 225, (2R,3S,4S,5R)-N-(2-(1,6-diazaspiro[3.3]heptane-1-carbonyl)pyridin-4-yl)-3-(3,4-difluoro-2-methoxyphenyl)-4,5-dimethyl-5-(trifluoromethyl)tetrahydrofuran-2-carboxamide]",10 to 100 nM
6,"COc1c([C@H]2[C@H](C(=O)Nc3ccnc(C(=O)NC[C@@H]4CC(F)(F)CN4)c3)O[C@@](C)(C(F)(F)F)[C@H]2C)ccc(F)c1F [Compound 226, 4-((2R,3S,4S,5R)-3-(3,4-difluoro-2-methoxyphenyl)-4,5-dimethyl-5-(trifluoromethyl)tetrahydrofuran-2-carboxamido)-N-(((S)-4,4-difluoropyrrolidin-2-yl)methyl)picolinamide]",100 to 1000 nM
7,"COc1c([C@H]2[C@H](C(=O)Nc3ccnc(C(=O)N4CC5(CCCN5)C4)c3)O[C@@](C)(C(F)(F)F)[C@H]2C)ccc(F)c1F [Compound 230, (2R,3S,4S,5R)-N-(2-(2,5-diazaspiro[3.4]octane-2-carbonyl)pyridin-4-yl)-3-(3,4-difluoro-2-methoxyphenyl)-4,5-dimethyl-5-(trifluoromethyl)tetrahydrofuran-2-carboxamide]",< 10 nM
8,"CNCCNC(=O)c1cc(NC(=O)[C@@H]2O[C@@](C)(C(F)(F)F)[C@@H](C)[C@H]2c2ccc(F)c(F)c2OC)ccn1 [Compound 231, 4-((2R,3S,4S,5R)-3-(3,4-difluoro-2-methoxyphenyl)-4,5-dimethyl-5-(trifluoromethyl)tetrahydrofuran-2-carboxamido)-N-(2-(methylamino)ethyl)picolinamide]",< 10 nM
9,"COc1c([C@H]2[C@H](C(=O)Nc3ccnc(C(=O)N4CCNC[C@@H]4C)c3)O[C@@](C)(C(F)(F)F)[C@H]2C)ccc(F)c1F [Compound 232, (2R,3S,4S,5R)-3-(3,4-difluoro-2-methoxyphenyl)-4,5-dimethyl-N-(2-((S)-2-methylpiperazine-1-carbonyl)pyridin-4-yl)-5-(trifluoromethyl)tetrahydrofuran-2-carboxamide]",< 10 nM
10,"COc1c([C@H]2[C@H](C(=O)Nc3ccnc(C(=O)NC[C@]4(C)CCCN4)c3)O[C@@](C)(C(F)(F)F)[C@H]2C)ccc(F)c1F [Compound 233, 4-((2R,3S,4S,5R)-3-(3,4-difluoro-2-methoxyphenyl)-4,5-dimethyl-5-(trifluoromethyl)tetrahydrofuran-2-carboxamido)-N-(((S)-2-methylpyrrolidin-2-yl)methyl)picolinamide]",10 to 100 nM
11,"CNCCN(C)C(=O)c1cc(NC(=O)[C@@H]2O[C@@](C)(C(F)(F)F)[C@@H](C)[C@H]2c2ccc(F)c(F)c2OC)ccn1 [Compound 234, 4-((2R,3S,4S,5R)-3-(3,4-difluoro-2-methoxyphenyl)-4,5-dimethyl-5-(trifluoromethyl)tetrahydrofuran-2-carboxamido)-N-methyl-N-(2-(methylamino)ethyl)picolinamide]",< 10 nM
12,"COc1c([C@H]2[C@H](C(=O)Nc3ccnc(C(=O)N4CCNC[C@H]4C)c3)O[C@@](C)(C(F)(F)F)[C@H]2C)ccc(F)c1F [Compound 235, (2R,3S,4S,5R)-3-(3,4-difluoro-2-methoxyphenyl)-4,5-dimethyl-N-(2-((R)-2-methylpiperazine-1-carbonyl)pyridin-4-yl)-5-(trifluoromethyl)tetrahydrofuran-2-carboxamide]",< 10 nM

# Next, values leading:
row,IC50,SMILES
1,< 10 nM,"C[C@H]1[C@@H](c2ccc(F)c(F)c2COC2COC2)[C@H](C(=O)Nc2ccnc(C(N)=O)c2)O[C@@]1(C)C(F)(F)F [Compound 211, 4-((2R,3S,4S,5R)-3-(3,4-difluoro-2-((oxetan-3-yloxy)methyl)phenyl)-4,5-dimethyl-5-(trifluoromethyl)tetrahydrofuran-2-carboxamido) picolinamide]"
2,< 10 nM,"COc1c([C@H]2[C@H](C(=O)Nc3ccnc(C(=O)N4CC5(CCN5)C4)c3)O[C@@](C)(C(F)(F)F)[C@H]2C)ccc(F)c1F [Compound 215, (2R,3S,4S,5R)—N-(2-(1,6-diazaspiro[3.3]heptane-6-carbonyl)pyridin-4-yl)-3-(3,4-difluoro-2-methoxyphenyl)-4,5-dimethyl-5-(trifluoromethyl)tetrahydrofuran-2-carboxamide]"
3,< 10 nM,"COc1c([C@H]2[C@H](C(=O)Nc3ccnc(C(=O)N4CC5(CCN5C)C4)c3)O[C@@](C)(C(F)(F)F)[C@H]2C)ccc(F)c1F [Compound 216, (2R,3S,4S,5R)-3-(3,4-difluoro-2-methoxyphenyl)-4,5-dimethyl-N-(2-(1-methyl-1,6-diazaspiro[3.3]heptane-6-carbonyl)pyridin-4-yl)-5-(trifluoromethyl)tetrahydrofuran-2-carboxamide]"
4,< 10 nM,"COc1c([C@H]2[C@H](C(=O)Nc3ccnc(C(=O)N(C)O)c3)O[C@@](C)(C(F)(F)F)[C@H]2C)ccc(F)c1F [Compound 217, 4-((2R,3S,4S,5R)-3-(3,4-difluoro-2-methoxyphenyl)-4,5-dimethyl-5-(trifluoromethyl)tetrahydrofuran-2-carboxamido)-N-hydroxy-N-methylpicolinamide]"
5,< 10 nM,"COc1c([C@H]2[C@H](C(=O)Nc3ccnc(C(=O)N4CC[C@H](O)C4)c3)O[C@@](C)(C(F)(F)F)[C@H]2C)ccc(F)c1F [Compound 219, (2R,3S,4S,5R)-3-(3,4-difluoro-2-methoxyphenyl)-N-(2-((S)-3-hydroxypyrrolidine-1-carbonyl)pyridin-4-yl)-4,5-dimethyl-5-(trifluoromethyl)tetrahydrofuran-2-carboxamide]"
6,< 10 nM,"COc1c([C@H]2[C@H](C(=O)Nc3ccnc(C(=O)N4CC[C@@H](O)C4)c3)O[C@@](C)(C(F)(F)F)[C@H]2C)ccc(F)c1F [Compound 220, (2R,3S,4S,5R)-3-(3,4-difluoro-2-methoxyphenyl)-N-(2-((R)-3-hydroxypyrrolidine-1-carbonyl)pyridin-4-yl)-4,5-dimethyl-5-(trifluoromethyl)tetrahydrofuran-2-carboxamide]"
7,< 10 nM,"COc1c([C@H]2[C@H](C(=O)Nc3ccnc(C(=O)NCCO)c3)O[C@@](C)(C(F)(F)F)[C@H]2C)ccc(F)c1F [Compound 221, 4-((2R,3S,4S,5R)-3-(3,4-difluoro-2-methoxyphenyl)-4,5-dimethyl-5-(trifluoromethyl)tetrahydrofuran-2-carboxamido)-N-(2-hydroxyethyl)picolinamide]"
8,< 10 nM,"COc1c([C@H]2[C@H](C(=O)Nc3ccnc(C(=O)N4CCNCC4)c3)O[C@@](C)(C(F)(F)F)[C@H]2C)ccc(F)c1F [Compound 224, (2R,3S,4S,5R)-3-(3,4-difluoro-2-methoxyphenyl)-4,5-dimethyl-N-(2-(piperazine-1-carbonyl)pyridin-4-yl)-5-(trifluoromethyl)tetrahydrofuran-2-carboxamide]"
9,< 10 nM,"COc1c([C@H]2[C@H](C(=O)Nc3ccnc(C(=O)N4C[C@H]5CCNC[C@H]54)c3)O[C@@](C)(C(F)(F)F)[C@H]2C)ccc(F)c1F [Compound 227, (2R,3S,4S,5R)-N-(2-((1S,6R)-3,8-diazabicyclo[4.2.0]octane-8-carbonyl)pyridin-4-yl)-3-(3,4-difluoro-2-methoxyphenyl)-4,5-dimethyl-5-(trifluoromethyl)tetrahydrofuran-2-carboxamide]"
10,< 10 nM,"COc1c([C@H]2[C@H](C(=O)Nc3ccnc(C(=O)N4CC5(CNC5)C4)c3)O[C@@](C)(C(F)(F)F)[C@H]2C)ccc(F)c1F [Compound 228, (2R,3S,4S,5R)-N-(2-(2,6-diazaspiro[3.3]heptane-2-carbonyl)pyridin-4-yl)-3-(3,4-difluoro-2-methoxyphenyl)-4,5-dimethyl-5-(trifluoromethyl)tetrahydrofuran-2-carboxamide]"
11,< 10 nM,"COc1c([C@H]2[C@H](C(=O)Nc3ccnc(C(=O)N(C)[C@@H]4CCNC4)c3)O[C@@](C)(C(F)(F)F)[C@H]2C)ccc(F)c1F [Compound 229, 4-((2R,3S,4S,5R)-3-(3,4-difluoro-2-methoxyphenyl)-4,5-dimethyl-5-(trifluoromethyl)tetrahydrofuran-2-carboxamido)-N-methyl-N-((R)-pyrrolidin-3-yl)picolinamide]"
